# Assay results: PubChem BioAssay (NCI)
#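 Assay format: 96-well plates, 48-hour exposure. Abbreviation: GI50, concentration required for 50% inhibition of growth. Definition used: TGI = concentration required for complete inhibition of growth.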
# Columns and labels:
# Test in all cases: growth of human tumour cells (NCI), 48 h
# RXF 393 renal = system: RXF 393 renal
# UACC-62 melanoma = system: UACC-62 melanoma
# COLO 205 colon = system: COLO 205 colon
# TK-10 renal = system: TK-10 renal
# CCRF-CEM leukemia = system: CCRF-CEM leukemia
# CAKI-1 renal = system: CAKI-1 renal
# SF-539 CNS = system: SF-539 CNS
# HCT-116 colon = system: HCT-116 colon
# A498 renal = system: A498 renal
# LOX IMVI melanoma = system: LOX IMVI melanoma
Compound,GI50 (RXF 393 renal),TGI (RXF 393 renal),GI50 (UACC-62 melanoma),TGI (UACC-62 melanoma),GI50 (COLO 205 colon),TGI (COLO 205 colon),GI50 (TK-10 renal),TGI (TK-10 renal),GI50 (CCRF-CEM leukemia),TGI (CCRF-CEM leukemia),GI50 (CAKI-1 renal),TGI (CAKI-1 renal),GI50 (SF-539 CNS),TGI (SF-539 CNS),GI50 (HCT-116 colon),TGI (HCT-116 colon),GI50 (A498 renal),TGI (A498 renal),GI50 (LOX IMVI melanoma),TGI (LOX IMVI melanoma)
CCCC(=O)Nc1c(I)cc(I)c(CC(CC)C(=O)O)c1I (stereo not drawn),> 100 µM,> 100 µM,> 100 µM,> 100 µM,> 100 µM,> 100 µM,> 100 µM,> 100 µM,> 100 µM,> 100 µM,> 100 µM,> 100 µM,> 100 µM,> 100 µM,> 100 µM,> 100 µM,> 100 µM,> 100 µM,> 100 µM,> 100 µM
CCOc1ccc(N=Cc2ccc3ccccc3n2)cc1,,> 100 µM,,> 100 µM,,> 100 µM,,> 100 µM,,> 100 µM,,> 100 µM,,> 100 µM,,> 100 µM,,> 100 µM,,> 100 µM
S=C1SCN(C2CCCCCCCCCCC2)CN1C1CCCCCCCCCCC1,,> 100 µM,,> 100 µM,,> 100 µM,,> 100 µM,,> 100 µM,,> 100 µM,,> 100 µM,,> 100 µM,,> 100 µM,,> 100 µM
CCCCCC(=C/c1ccccc1)/C=N/N=C(N)N,1.72 µM,3.15 µM,,,1.65 µM,3.17 µM,1.75 µM,3.32 µM,2 µM,5.04 µM,5.16 µM,21.2 µM,1.95 µM,3.71 µM,1.32 µM,2.72 µM,0.621 µM,1.99 µM,1.44 µM,3.02 µM
C[C@@H]1OC(=O)NN=C1c1ccc(-c2ccc(F)cc2)c(C(F)(F)F)c1,1.58 µM,7.62 µM,,,11.8 µM,28 µM,1.65 µM,19.6 µM,8.25 µM,> 100 µM,4.88 µM,18.7 µM,11.2 µM,24.3 µM,5.27 µM,20.6 µM,15.5 µM,29.5 µM,4.78 µM,18.8 µM
O=C1c2ccccc2-c2c1c1ccc([N+](=O)[O-])cc1c(=O)n2CCCn1ccnc1,0.16 µM,2.43 µM,0.0116 µM,0.0348 µM,4.57 µM,> 38.5 µM,1.16 µM,9.31 µM,,0.785 µM,0.172 µM,0.807 µM,0.0149 µM,0.0838 µM,0.0763 µM,0.652 µM,0.525 µM,8.88 µM,0.152 µM,0.33 µM
COC(=O)C1=C(O)c2cc3c(cc2[C@H](c2cc(OC)c(OC)c(OC)c2)C1)OCO3,,> 100 µM,,27.9 µM,,34.7 µM,,> 100 µM,,> 100 µM,,> 100 µM,,> 100 µM,,> 100 µM,,61.7 µM,,> 100 µM
O=C(COC(=O)c1cccc2c(=O)c3ccccc3[nH]c12)Nc1ccc(S(=O)(=O)Nc2ncccn2)cc1,,> 100 µM,,39.7 µM,,> 100 µM,,> 100 µM,,67.4 µM,,> 100 µM,,39.1 µM,,> 100 µM,,> 100 µM,,> 100 µM
NC(N)=NC(N)=Nc1ccc(S(N)(=O)=O)cc1,,> 100 µM,,> 100 µM,,> 100 µM,,> 100 µM,,> 100 µM,,> 100 µM,,> 100 µM,,> 100 µM,,> 100 µM,,> 100 µM
N/C(=N\N=C\c1ccc(O)c(O)c1)NO,,> 100 µM,,> 100 µM,,> 100 µM,,> 100 µM,,> 100 µM,,> 100 µM,,> 100 µM,,> 100 µM,,> 100 µM,,> 100 µM
C=C1C(=O)O[C@H]2[C@H]1CC/C(Cn1cc(-c3ccsc3)nn1)=C\CC[C@@]1(C)O[C@@H]21,1.07 µM,2.46 µM,,,1.45 µM,3.24 µM,1.52 µM,3.16 µM,1.63 µM,12.3 µM,1.06 µM,2.25 µM,1.8 µM,3.47 µM,1.16 µM,2.76 µM,2.65 µM,12.6 µM,1.28 µM,2.61 µM
O=C(Nc1ccc(-n2ccc3c(NC(=O)c4ccccc4)nccc32)cc1)c1ccc(N2CCOCC2)c(C(F)(F)F)c1,0.194 µM,1.48 µM,0.331 µM,21.7 µM,0.364 µM,32.4 µM,0.449 µM,26.1 µM,0.44 µM,> 100 µM,0.0565 µM,15.7 µM,0.0513 µM,6.79 µM,0.035 µM,15.7 µM,2.19 µM,26.6 µM,0.0334 µM,7.06 µM
